Measurements: publication PMC12281475, “Mediator Kinase Inhibitor Selectivity and Activity in Colorectal Cancer” (ACS Chemical Biology, 2025)

System: COLO205 cells
Assay: Promoter reporter panel (transient luciferase constructs), COLO205
Assay type: cell-based, human
Conditions: COLO205, 350 nM, 6 h
Description: Transcription factor activity was assayed in cell lines using 45 different plasmid reporter constructs encoding firefly luciferase under the control of a basal promoter element downstream of specific transcriptional response elements (Qiagen, Germany; Supporting Table S1). Firefly luciferase under the control of basal promoter element alone was used to establish the baseline signal and cotransfection of a construct expressing renilla luciferase from a CMV-promoter was used as a transfection control. Cells were reverse-transfected with reporter plasmids, compounds were added 42 h post transfection and reporter activity quantified following 6 h continuous exposure.
Transcription factor promoter reporter assays were carried out to define signalling pathways and biological processes modulated by CDK8/19 ligands. A panel of plasmid reporter constructs encoding firefly luciferase under the control of a basal promoter element with specific transcriptional response elements were used (Qiagen, Germany;
Firefly luciferase under the control of the minimal promoter element (TATA box) alone was used to establish the base-line signal and a construct expressing renilla luciferase from a CMV-promoter was used as a transfection control. COLO205 human colon cancer cells or SW620 parental and CRISPR KO cells were reverse-transfected with the panel of plasmid reporters in a 96 well plate format. The reporter mixes were prepared at 40:1 ratio of fLUC to rLUC plasmid at a final concentration of
100 ng/ml. For each well 1 ul plasmid was complexed with 1 ul Lipofectamine 2000
(Thermo Fisher Scientific, UK) in 50 ul OptiMEM (Thermo Fisher Scientific, UK) media
for 20 mins at room temperature. Cells were trypsinised and 50 ul of cells at 2e5
cells/ml in supplemented DMEM were added to the 50 ul of plasmid:lipofectamine
mixture in OptiMEM in a well of a 96-well white opaque flat bottom microtiter plate.
fLUC and rLUC were measured by the addition of 100 ul dual glo luciferase reagent
(Promega, USA). Reporter activity was quantified in untreated cells 48 hours post- […]

Cn1cc(-c2ccc(-c3cncc(Cl)c3N3CCC4(CCNC4=O)CC3)cc2)cn1 [CCT251545]
reduction of activity of TCF/LEF, SP1 and PAX6 reporter constructs: > 1.5 fold
WNT-regulated TCF/LEF reporter construct activity (p adj < 0.001): most significant decrease
